A word on the melting point: it is the temperature, or range, at which the solid turns liquid.

The record followed here is a melting point compilation (Tetko et al.; mined from patent text by program, amines drawn as free bases though some values may be those of a salt).

Where only a bound is given, the exact number is not on record here.

Regarding `Cc1cc(-c2cccc(C(=O)CC(=O)Nc3cc(-c4ccccc4F)ccc3NC(=O)OC(C)(C)C)c2)on1`, the melting point was 158 to 160 °C.

`CN1CCC(c2cccc(Cl)c2)(C(C)(C)O)CC1` registered a melting point of 149 to 150 °C. For `O=C1NCCc2c(-c3cccc(C(F)(F)F)c3)[nH]c3cccc1c23` the value was 212 to 214 °C. For `Cc1cc2c3c(c1N)c(=O)c(C(=O)O)cn3C(C)CC2` (configuration not stated) the value was 264 to 266 °C; for `C=Cc1ccc(P(c2ccccc2)c2ccccc2)cc1`, 77 to 78 °C. To `CC1(C)C=C(c2ccccc2O)c2cc(C#N)ccc2O1` belongs 139 to 140 °C; to `COc1cc2c3c(c1OC)C=NCC3c1ccccc1CC2` (configuration not stated), 131 to 132 °C. `Cc1ccccc1-c1c(NC(=O)Nc2ccc(F)cc2F)c(=O)oc2ccc(C(C)C)cc12` yielded a melting point of 199 to 200 °C.

With `O=C(O)C1=Cc2ccc(-c3ccccc3)cc2OC1C(F)(F)F` (configuration not stated), the melting point fell in the range of 209 to 212 °C. For `Cc1ccc2cccc(OCc3c(Cl)ccc(N4CC(=O)NCC4=O)c3Cl)c2n1` the value was 211 to 213 °C; for `Nc1c(C(O)(C(F)(F)F)C(F)(F)F)ccc2cc(O)ccc12`, 160 to 161 °C. For `O=C(CBr)Nc1cccc(O)c1` the value was 167 to 170 °C. For `Cc1cccc(NC(=O)NC(CC(=O)N(CC(=O)OC(C)(C)C)c2ccccc2)c2ccccc2)c1` (racemic) the value was 164 °C; for `CC(=O)Oc1ccc(-c2c3ccccc3c(Br)c3sc(C)c(C)c23)cc1`, 190 to 191 °C.

For the molecule `CCCCCCCCNC(=O)n1nc(Oc2c(Cl)cc(C(F)(F)F)cc2Cl)cc1C`, the melting point lay within 43 to 45 °C. `O=C1c2ccccc2C(=O)N1CCCCc1ccc(S(=O)(=O)Cl)cc1` displayed a melting point of 122 to 125 °C. For `CNC(=O)C(C)Oc1ncn(-c2ccc(C(F)(F)F)cc2)n1` (configuration not stated) the value was 157 to 158 °C.

`CC(NC(=O)c1c[nH]c2ncc(-c3nn(CC(O)CO)c4cc(Cl)ccc34)nc12)C(=O)N1CC(C#N)C1` (configuration not stated): the melting point was 165 to 180 °C. For `COc1ccc(C(C)(C)C(=O)O)cc1` the value was 86 to 88 °C; for `OCc1ccc2c(c1)ncn2-c1cccc(Br)c1`, 107 to 109 °C.

In the case of `CC(C)C1(C)NC(c2ccc(C=O)cn2)=NC1=O` (configuration not stated), the melting point was 106 to 108 °C. To `Cn1c2ccc(Cl)cc2c(=O)n2nc(C(=O)O)cc12` belongs 280 °C; to `Cc1cc(N)c(I)c(C)n1`, 103 to 110 °C; to `CC(C)Cc1nc2sc3c(NCc4cccnc4)ncnc3c2c2c1COC(C)(C)C2`, 244 to 245 °C. For `CC1=C(CCN(O)C(N)=O)/C(=C/c2ccc(S(C)(=O)=O)cc2)c2ccccc21` the value was 140 to 142 °C; for `COc1ccc(CC(=O)c2cccnc2)cc1OC`, 188 to 191 °C. To `COc1cc2cc3c(N)c(C(N)=O)sc3nc2cc1OC` belongs 278 to 280 °C; to `Cc1cc(Oc2ccc([N+](=O)[O-])c(F)c2)n[nH]1`, 80 to 83 °C. `COc1ccc(/C=C/c2nc3c([nH]2)c(=O)n(C)c(=O)n3C)c(Cl)c1OC` registered a melting point of 242 °C.

`COc1ccc(C(=O)Oc2ccc(O)cc2)cc1` came in with a melting point of 162 to 165 °C. `CC(C)(C)OC(=O)NC(Cc1ccc(OCc2ccccc2)cn1)C(=O)NCc1ccc(C(=O)NO)cc1` (configuration not stated) returned a melting point of 106 to 108 °C. For `Cc1nn(-c2cc3nc(S(=O)Cc4ccccc4)sc3cc2F)c(=O)n1C` (configuration not stated) the value was 162 to 164 °C. For the molecule `CCOCCn1c(C2CCN(CCc3ccc(C(C)(C)C)cc3)CC2)nc2ccccc21`, the melting point lay in the range of 138 to 140 °C. To `CN1CCN(C(=O)OC2c3ccccc3C(=O)N2c2ccc3cnccc3n2)CC1` (configuration not stated) belongs 215 °C. To `Nc1ncccc1-c1nc2ccc(-c3cn[nH]c3)nc2n1-c1ccc(CNC(=O)c2cccc(F)c2)cc1` belongs 267 to 269 °C; to `CN(C(=O)c1cc(=O)n(C)c2ccc(C(O)(c3ccc(Cl)cc3)c3cncn3C)cc12)c1cccc(Cl)c1` (configuration not stated), 218 °C; to `Cc1ccsc1C(Cc1ccccc1N)N(C)C` (configuration not stated), 75 to 77 °C. For `COc1cccc(C(=O)OC2CC3C(=O)NC4(C(=O)NS(=O)(=O)C5CC5)CC4C=CCOCCCC(NC(=O)OC(C)(C)C)C(=O)N3C2)c1` (configuration not stated) the value was 149 to 151 °C; for `Cn1ccnc1-c1ccc(O)cc1`, 239 to 242 °C; for `COCc1nnc2ccc(-c3ccccc3)nn12`, 133 °C. `Oc1cccc(OCc2ccc3ccccc3n2)c1` returned a melting point of 151 to 153 °C. With `CC(C)c1sc2ncnc(N)c2c1-c1ccc([N+](=O)[O-])cc1`, the melting point is > 260 °C. `O=Cc1cc(O)cc2cc(-c3ccc(O)cc3)oc12` came in with a melting point of 261 to 263 °C.

For the molecule `Cc1noc(C)c1COc1ccc(C(=O)O)c(O)c1`, the melting point lay in the range of 201 to 203 °C.

`CC1(C)CC(NC(=O)Nc2ccccc2)c2cc(C#N)ccc2O1` (configuration not stated): the melting point was 214 to 215 °C.

`COC(=O)C(CC(=S)c1ccc(C)cc1)C(C)=O` (configuration not stated): the melting point was 110 to 112 °C.

`CC(C(=O)O)c1cccc2c1Oc1ccccc1CC2` (configuration not stated): the melting point is 133 to 134 °C. For `COc1ccc2c(c1)Oc1cscc1C(N1CCN(C)CC1)=N2` the value was 188 to 189 °C. `CNC(=O)CC1CN=C(c2cc3cc(Oc4ccc(CS(C)(=O)=O)nc4)cc(OC4CCOCC4)c3[nH]2)S1` (configuration not stated) registered a melting point of 157 to 158 °C. For `Cc1c(C(=O)c2sc(Nc3ccc(S(N)(=O)=O)cc3)nc2N)sc2ccccc12` the value was 274 to 276 °C; for `CSc1nn2c(N3CCN(C)CC3)cc(C)nc2c1S(=O)(=O)c1ccccc1`, 209 to 210 °C. For `CC1Cc2ccc(Cl)cc2C(c2ccc([N+](=O)[O-])cc2)=NN1C(=S)Cl` (configuration not stated) the value was 210 to 214 °C.

On to `CCOC=Nc1c(S(C)=O)c(C#N)nn1-c1c(Cl)cc(C(F)(F)F)cc1Cl` (configuration not stated), for which the melting point was 93 to 95 °C. Molecule `COc1cn(-c2cc(N3CCCC3=O)ccc2F)nc(-c2ccnn2-c2ccccc2)c1=O` yielded a melting point of 171 to 174 °C. For `CC(C)CC1(Cn2cnc3ccccc32)Sc2[nH]c(=O)n(C)c(=O)c2C1Sc1cccs1` (configuration not stated) the value was 198 °C. To `COc1ccc(S(=O)(=O)Nc2ccc(F)cc2NC(=O)c2ccccc2)cc1` belongs 153 to 154 °C; to `Nc1ccccc1C(=O)N1CCCc2ccccc21`, 102 °C; to `CC(=O)c1sc(-c2ccc(C(F)(F)F)cc2)nc1C`, 89 to 90 °C. For `C=C(Cc1ccc(Cl)cc1)C(=O)O` the value was 78 to 86 °C. In turn, `Cc1csc(-c2cc3cccc(NS(=O)(=O)c4cccs4)c3[nH]2)n1` displayed a melting point of 181 to 183 °C. For `CN(C)CCN(C)C(=O)Cc1ccc(NC(=O)OCc2ccccc2)cc1` the value was 109 to 110 °C. To `COC(=O)CCCc1cc2nc(Cl)ccc2n1S(=O)(=O)c1ccc2snnc2c1` belongs 219 °C; to `COc1c(Cl)cc(C(=O)O)c2c1OCCO2`, 172 °C; to `Cc1c(CCc2ccc3nc(N)sc3c2)ncn1C(c1ccccc1)(c1ccccc1)c1ccccc1`, 200 to 203 °C. To `CCOC(=O)COc1cc(OCC=C(C)C)ccc1C(=O)C=Cc1ccc(C(C)(C)C)cc1` belongs 78 to 79 °C. As to `Nc1nn2cc(-c3ccc([N+](=O)[O-])o3)nc2s1`, the melting point was in the range of 257 to 258 °C. For `COC(=O)c1cc(S(C)(=O)=O)ccc1OCc1ccccn1` the value was 189 to 192 °C. To `c1cnnc(N=C2SC[C@@H]3Cc4ccccc4CN23)c1` belongs 140 to 142 °C. To `O=C(C1CCCC1)N1CCc2cc(S(=O)(=O)N3CCN(c4cccc(Cl)c4)CC3)ccc21` belongs 166 to 167 °C.

On to `O=C(O)COc1c2c3c(ccnc3c3ccccc13)CCC2`, for which the melting point came to 228 °C.

In turn, `Cc1noc(NC(=O)N2CCN(c3nccc(-c4cc(F)ccc4F)n3)CC2)c1C` returned a melting point of 218 to 219 °C. For `CN(C)C=NC(=O)c1nn(-c2ccccc2)c(=O)cc1Oc1ccccc1` the value was 175 to 176 °C; for `OCCCCc1cn(C(c2ccccc2)(c2ccccc2)c2ccccc2)cn1`, 144 to 146 °C. For `CCC(=CC(CSc1nnnn1C)=NO)C(C)[N+](=O)[O-]` (configuration not stated) the value was 83 to 84 °C; for `Nc1nc(N)c(CCCN(C(=O)C(F)(F)F)c2ccc(C(=O)O)cc2)c(=O)[nH]1`, 229 to 230 °C; for `CS(=O)(=O)NC(=O)CCc1ccc(OC2CCc3cc(Cl)ccc32)cc1` (configuration not stated), 140 to 141 °C. To `O=C(O)c1cccc(NC(=O)C(CS)Cc2noc3ccccc23)c1` (configuration not stated) belongs 207 to 209 °C. For `Cc1cc(-c2nc(COc3ccc(CCCCn4ccnc4)cc3)co2)sc1Br`, the melting point fell in the range of 85 to 86 °C.

In turn, `COc1ccc(C(=O)C2=C(c3ccccc3)c3ccc(OC)cc3CC2)cc1` came in with a melting point of 107 to 108 °C. To `CN(C)c1ccc2nc3c4ccccc4c(=Nc4ccncc4)cc-3oc2c1` belongs 217 to 218 °C; to `CC(=O)OC1CCC2(C)C(=CCC3C2CCC2(C)C(C(C)CCC(OC(C)=O)C(C)(C)OC(C)=O)CCC32)C1` (configuration not stated), 121 to 122 °C; to `CNc1c([N+](=O)[O-])cnc2ccccc12`, 168 to 170 °C. With `CS(=O)(=O)c1cccnc1CC1C(=O)C2(COc3cc4c(cc32)OCCO4)c2ccccc21` (configuration not stated), the melting point is > 250 °C. For `COC1=C(OC)C(=Nc2ccccc2)NC1=O` the value was 141 to 143 °C; for `Cc1cccc(-n2nc3c(c2OS(=O)(=O)C(F)(F)F)CCC3)n1`, 146 to 148 °C. For `Fc1cccc(F)c1CCNC(=S)Nc1ccccn1` the value was 157 to 160 °C. For `Cc1nnc2n1-c1sc(C#CCN3C(=O)c4ccccc4S3(=O)=O)cc1C(c1ccccc1Cl)=NC2`, the melting point is 232 to 234 °C.
